Measured values from US9018206B2, “Carboxamide compounds and their use as calpain inhibitors” (AbbVie Deutschland GmbH & Co. KG, priority 2009, dated 2015).

Experiments:
Assay type in all cases: biochemical
[1] = biological target: T1, calpain-I isolated from human erythrocytes (Homo sapiens, UniProt P07384); assay: Calpain I enzyme inhibition in vitro (kinetic fluorescence assay); details: apparent Ki from IC50 (Cheng-Prussoff); 20 nM calpain-I, 100 μM Suc-Leu-Tyr-AMC, pH 7.3, room temperature
T1 construct: calpain-I—isolated from human erythrocytes; purchased Calbiochem 208713; host or cells: human erythrocytes (tissue-derived)
T1 sequence (P07384 1-714): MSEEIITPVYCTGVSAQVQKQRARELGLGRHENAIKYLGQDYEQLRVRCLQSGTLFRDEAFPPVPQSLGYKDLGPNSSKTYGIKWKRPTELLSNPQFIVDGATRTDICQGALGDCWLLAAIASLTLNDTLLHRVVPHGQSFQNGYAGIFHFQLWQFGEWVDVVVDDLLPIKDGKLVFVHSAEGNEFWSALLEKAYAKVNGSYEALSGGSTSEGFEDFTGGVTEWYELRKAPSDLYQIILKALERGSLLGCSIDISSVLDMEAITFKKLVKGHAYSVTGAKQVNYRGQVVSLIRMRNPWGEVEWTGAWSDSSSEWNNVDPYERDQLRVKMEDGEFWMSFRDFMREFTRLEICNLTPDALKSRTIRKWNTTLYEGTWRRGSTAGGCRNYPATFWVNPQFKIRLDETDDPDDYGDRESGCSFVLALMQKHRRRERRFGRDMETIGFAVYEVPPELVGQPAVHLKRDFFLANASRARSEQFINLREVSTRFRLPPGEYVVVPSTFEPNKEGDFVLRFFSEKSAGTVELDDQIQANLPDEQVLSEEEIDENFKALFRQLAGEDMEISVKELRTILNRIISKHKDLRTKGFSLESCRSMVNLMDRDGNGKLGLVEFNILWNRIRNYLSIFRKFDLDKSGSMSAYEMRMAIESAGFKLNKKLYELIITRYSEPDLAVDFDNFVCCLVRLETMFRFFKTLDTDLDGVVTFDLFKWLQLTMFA
T1 sequence (P04632 1-268 partner): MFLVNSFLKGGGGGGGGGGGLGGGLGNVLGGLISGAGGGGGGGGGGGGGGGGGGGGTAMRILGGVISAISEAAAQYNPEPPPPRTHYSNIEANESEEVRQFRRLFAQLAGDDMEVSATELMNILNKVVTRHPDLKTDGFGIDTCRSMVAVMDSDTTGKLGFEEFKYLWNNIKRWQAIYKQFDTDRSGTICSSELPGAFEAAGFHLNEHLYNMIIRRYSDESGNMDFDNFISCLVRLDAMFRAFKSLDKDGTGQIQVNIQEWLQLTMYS
Procedure: (§1) Testing for blockade of the corresponding enzymic activities was carried out by means of kinetic fluorescence assays (excitation 390 nm, emission 460 nm).
(§2) Apparent Ki values were calculated from the experimentally determined IC50 values by the Cheng-Prussoff relation assuming a reversible competitive enzyme inhibition. The Km values of the substrates used under the assay conditions indicated above were: 90 μM (Z-Phe-Arg-AMC, cathepsin B), 10 μM (Z-Gly-Pro-Arg-AMC, cathepsin K), 2 μM (Z-Phe-Arg-AMC, cathepsin L), and 30 μM (Z-Val-Val-Arg-AMC, cathepsin S).
(§3) The indicated Ki values are averages of the inhibition constants calculated on the basis of 2 to 4 independent dose-effect plots.
(§4) • 20 nM calpain-I—isolated from human erythrocytes (Calbiochem #208713), 100 μM Suc-Leu-Tyr-AMC (Bachem #I-1355) as substrate in buffer with 62 mM imidazole, 0.3 mM CaCl2, 0.10% CHAPS, 0.05% BSA, 1 mM DTT at pH 7.3 and room temperature. 1. Cathepsin B: • 0.25 nM cathepsin B—isolated from human liver (Calbiochem #219362), 100 μM Z-Phe-Arg-AMC (Bachem #I-1160) as substrate 50 mM MES, 2 mM EDTA, 0.05% Brij 35, 2.5 mM L-cysteine, pH 6.0, room temperature. 3. Cathepsin K: • 3 nM cathepsin K activated from recombinant human procathepsin K from E. coli (Calbiochem #342001), 10 μM Z-Gly-Pro-Arg-AMC (Biomol #P-142) as substrate in 50 mM MES, 2 mM EDTA, 0.05% Brij 35, 2.5 mM L-cysteine, pH 6.0, room temperature. 4. Cathepsin L: • 1 nM cathepsin L—isolated from human liver (Calbiochem #219402), 2 μM Z-Phe-Arg-AMC (Bachem #I-1160) as substrate in 50 mM MES, 2 mM EDTA, 0.05% Brij 35, 2.5 mM L-cysteine, pH 6.0, room temperature. 5. Cathepsin S: • 0.5 nM recombinant human cathepsin S from E. coli (Calbiochem #219343), 20 μM Z-Val-Val-Arg-AMC (Bachem #I-1540) as substrate in 50 mM MES, 2 mM EDTA, 0.05% Brij 35, 2.5 mM L-cysteine, pH 6.0, room temperature.

[2] = biological target: T2, cathepsin B isolated from human liver (Homo sapiens, UniProt P07858); assay: Cathepsin B enzyme inhibition in vitro (kinetic fluorescence assay); details: Ki(cathepsin B)/Ki(calpain) ratio
T2 construct: cathepsin B—isolated from human liver; purchased Calbiochem 219362; host or cells: human liver (tissue-derived)
Procedure: as §1, §2, §3, §4

[3] = biological target: T3, cathepsin K activated from recombinant human procathepsin K (Homo sapiens, UniProt P43235); assay: Cathepsin K enzyme inhibition in vitro (kinetic fluorescence assay); details: Ki(cathepsin K)/Ki(calpain) ratio
T3 construct: purchased Calbiochem 342001; host or cells: E. coli
T3 sequence (P43235 115-329): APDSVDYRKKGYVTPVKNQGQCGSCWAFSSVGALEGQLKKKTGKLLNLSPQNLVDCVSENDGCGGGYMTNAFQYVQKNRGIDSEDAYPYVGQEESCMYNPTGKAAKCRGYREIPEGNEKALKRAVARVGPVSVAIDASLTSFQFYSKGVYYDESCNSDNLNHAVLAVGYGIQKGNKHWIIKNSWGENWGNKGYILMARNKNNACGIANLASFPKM
Procedure: as §1, §2, §3, §4

[4] = biological target: T4, cathepsin L isolated from human liver (Homo sapiens, UniProt P07711); assay: Cathepsin L enzyme inhibition in vitro (kinetic fluorescence assay); details: Ki(cathepsin L)/Ki(calpain) ratio
T4 construct: cathepsin L—isolated from human liver; purchased Calbiochem 219402; host or cells: human liver (tissue-derived)
T4 sequence (P07711 114-333): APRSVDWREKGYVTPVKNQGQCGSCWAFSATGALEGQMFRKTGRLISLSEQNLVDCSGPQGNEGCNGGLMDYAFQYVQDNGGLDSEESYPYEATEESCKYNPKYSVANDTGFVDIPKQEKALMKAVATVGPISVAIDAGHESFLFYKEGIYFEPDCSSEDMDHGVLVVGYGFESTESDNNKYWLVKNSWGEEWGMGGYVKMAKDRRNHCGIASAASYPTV
Procedure: as §1, §2, §3, §4

[5] = biological target: T5, recombinant human cathepsin S (Homo sapiens, UniProt P25774); assay: Cathepsin S enzyme inhibition in vitro (kinetic fluorescence assay); details: Ki(cathepsin S)/Ki(calpain) ratio
T5 construct: purchased Calbiochem 219343; host or cells: E. coli
T5 sequence (P25774 115-331): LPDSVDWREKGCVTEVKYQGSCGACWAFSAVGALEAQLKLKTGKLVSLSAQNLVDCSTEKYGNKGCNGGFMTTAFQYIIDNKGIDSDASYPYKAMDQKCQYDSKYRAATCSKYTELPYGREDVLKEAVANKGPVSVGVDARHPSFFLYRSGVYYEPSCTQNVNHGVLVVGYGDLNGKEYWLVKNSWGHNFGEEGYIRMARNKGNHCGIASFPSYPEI
Procedure: as §1, §2, §3, §4

| Ki [1] [nM] | Sel cat. B [2] | Sel cat. L [4] | SMILES | Sel cat. K [3] | Sel cat. S [5] |
| --- | --- | --- | --- | --- | --- |
| 100 to 600 | ++ (10<Ki(cathepsin B)/Ki(calpain)≦30) | ++ (10<Ki(cathepsin B)/Ki(calpain)≦30) | O=C(NCc1ncco1)C(=O)C(Cc1ccccc1)NC(=O)[C@H]1CCC(=O)N1Cc1ccccc1 (stereo partly drawn) [Example 64, (2R)-1-Benzyl-N-(4-(oxazol-2-ylmethylamino)-3,4-dioxo-1-phenylbutan-2-yl)-5-oxopyrrolidine-2-carboxamide] | +++ (Ki(cathepsin K)/Ki(calpain) ratio of >30) | +++ (Ki(cathepsin S)/Ki(calpain) ratio of >100) |
| < 50 | ++ (10<Ki(cathepsin B)/Ki(calpain)≦30) | ++ (10<Ki(cathepsin B)/Ki(calpain)≦30) | NC(=O)C(=O)C(Cc1ccccc1)NC(=O)[C@H]1CCC(=O)N1Cc1ccccc1 (mixture of isomers) [Example 1, (2R)—N-(4-Amino-3,4-dioxo-1-phenylbutan-2-yl)-1-benzyl-5-oxopyrrolidine-2-carboxamide] | ++ (10<Ki(cathepsin B)/Ki(calpain)≦30) | +++ (Ki(cathepsin S)/Ki(calpain) ratio of >100) |
| 100 to 600 | ++ (10<Ki(cathepsin B)/Ki(calpain)≦30) | ++ (10<Ki(cathepsin B)/Ki(calpain)≦30) | N#Cc1cccc(CN2C(=O)CC[C@@H]2C(=O)NC(Cc2ccccc2)C(=O)C(N)=O)c1 (stereo partly drawn) [Example 16, (2R)—N-(4-Amino-3,4-dioxo-1-phenylbutan-2-yl)-1-(3-cyanobenzyl)-5-oxopyrrolidine-2-carboxamide] | +++ (Ki(cathepsin K)/Ki(calpain) ratio of >30) | + (10<Ki(cathepsin S)/Ki(calpain)≦30) |
| – | ++ (10<Ki(cathepsin B)/Ki(calpain)≦30) | + (5<Ki(cathepsin L)/Ki(calpain)≦10) | NC(=O)C(=O)C(Cc1ccccc1)NC(=O)[C@H]1CCC(=O)N1c1ccccc1 (stereo partly drawn) [Example 15, (2R)—N-(4-Amino-3,4-dioxo-1-phenylbutan-2-yl)-5-oxo-1-phenylpyrrolidine-2-carboxamide] | + (5<Ki(cathepsin K)/Ki(calpain)≦10) | + (10<Ki(cathepsin S)/Ki(calpain)≦30) |
| 50 to 100 | ++ (10<Ki(cathepsin B)/Ki(calpain)≦30) | ++ (10<Ki(cathepsin B)/Ki(calpain)≦30) | NC(=O)C(=O)C(Cc1ccccc1)NC(=O)[C@H]1CCC(=O)N1Cc1ccc(F)cc1 (stereo partly drawn) [Example 5, (2R)—N-(4-Amino-3,4-dioxo-1-phenylbutan-2-yl)-1-(4-fluorobenzyl)-5-oxopyrrolidine-2-carboxamide] | ++ (10<Ki(cathepsin B)/Ki(calpain)≦30) | ++ (30<Ki(cathepsin B)/Ki(calpain)≦100) |

| SMILES | Ki [1] [nM] | Sel cat. B [2] | Sel cat. L [4] | Sel cat. K [3] | Sel cat. S [5] |
| --- | --- | --- | --- | --- | --- |
| O=C(NCc1nccs1)C(=O)C(Cc1ccccc1)NC(=O)[C@H]1CCC(=O)N1Cc1ccccc1 (mixture of isomers) [Example 59, (2R)-1-Benzyl-N-(3,4-dioxo-1-phenyl-4-(thiazol-2-ylmethylamino)butan-2-yl)-5-oxopyrrolidine-2-carboxamide] | 100 to 600 | +++ (Ki(cathepsin B)/Ki(calpain) ratio of >30) | ++ (10<Ki(cathepsin B)/Ki(calpain)≦30) | +++ (Ki(cathepsin K)/Ki(calpain) ratio of >30) | +++ (Ki(cathepsin S)/Ki(calpain) ratio of >100) |
| O=C(NCc1cccs1)C(=O)C(Cc1ccccc1)NC(=O)[C@H]1CCC(=O)N1Cc1ccccc1 (mixture of isomers) [Example 60, (2R)-1-Benzyl-N-(3,4-dioxo-1-phenyl-4-(thiophen-2-ylmethylamino)butan-2-yl)-5-oxopyrrolidine-2-carboxamide] | 50 to 100 | +++ (Ki(cathepsin B)/Ki(calpain) ratio of >30) | ++ (10<Ki(cathepsin B)/Ki(calpain)≦30) | +++ (Ki(cathepsin K)/Ki(calpain) ratio of >30) | +++ (Ki(cathepsin S)/Ki(calpain) ratio of >100) |
| O=C(NCc1ccc(F)cc1)C(=O)C(Cc1ccccc1)NC(=O)[C@H]1CCC(=O)N1Cc1ccccc1 (mixture of isomers) [Example 67, (2R)-1-Benzyl-N-(4-(4-fluorobenzylamino)-3,4-dioxo-1-phenylbutan-2-yl)-5-oxopyrrolidine-2-carboxamide] | < 50 | +++ (Ki(cathepsin B)/Ki(calpain) ratio of >30) | +++ (Ki(cathepsin L)/Ki(calpain) ratio of >30) | +++ (Ki(cathepsin K)/Ki(calpain) ratio of >30) | +++ (Ki(cathepsin S)/Ki(calpain) ratio of >100) |
| O=C(Nc1ccccc1)C(=O)C(Cc1ccccc1)NC(=O)[C@H]1CCC(=O)N1Cc1ccccc1 (mixture of isomers) [Example 65, (2R)-1-Benzyl-N-(3,4-dioxo-1-phenyl-4-(phenylamino)butan-2-yl)-5-oxopyrrolidine-2-carboxamide] | 50 to 100 | +++ (Ki(cathepsin B)/Ki(calpain) ratio of >30) | +++ (Ki(cathepsin L)/Ki(calpain) ratio of >30) | +++ (Ki(cathepsin K)/Ki(calpain) ratio of >30) | +++ (Ki(cathepsin S)/Ki(calpain) ratio of >100) |
| O=C(NC1CC1)C(=O)C(Cc1ccccc1)NC(=O)[C@H]1CCC(=O)N1Cc1c(Cl)cccc1Cl (mixture of isomers) [Example 61, (2R)—N-(4-(Cyclopropylamino)-3,4-dioxo-1-phenylbutan-2-yl)-1-(2,6-dichlorobenzyl)-5-oxopyrrolidine-2-carboxamide] | 100 to 600 | + (5<Ki(cathepsin B)/Ki(calpain)≦10) | +++ (Ki(cathepsin L)/Ki(calpain) ratio of >30) | +++ (Ki(cathepsin K)/Ki(calpain) ratio of >30) | +++ (Ki(cathepsin S)/Ki(calpain) ratio of >100) |
| NC(=O)C(=O)C(Cc1ccccc1)NC(=O)[C@H]1CCC(=O)N1Cc1ccccc1C(F)(F)F (stereo partly drawn) [Example 17, (2R)—N-(4-Amino-3,4-dioxo-1-phenylbutan-2-yl)-5-oxo-1-[2-(trifluoromethyl)benzyl]-pyrrolidine-2-carboxamide] | 50 to 100 | ++ (10<Ki(cathepsin B)/Ki(calpain)≦30) | +++ (Ki(cathepsin L)/Ki(calpain) ratio of >30) | +++ (Ki(cathepsin K)/Ki(calpain) ratio of >30) | +++ (Ki(cathepsin S)/Ki(calpain) ratio of >100) |
